This is an account of results in patent publication US20160046618A1, “Cyclopropyl Fused Thiazin-2-Amine Compounds as Beta-Secretase Inhibitors and Methods of Use” (AMGEN INC., priority 2014, published 2016).

By IC50 is commonly meant the concentration at which inhibition is half-maximal.

Where only a bound is given, the exact number is not on record here.

For test [1], the target named is human recombinant BACE2 (Homo sapiens (Human), UniProt Q9Y5Z0). In words: In vitro enzymatic BACE2 FRET assay. Format: biochemical. As to conditions: read-out: IC50 IP (μM) BACE2 enzyme. In outline:
(§1)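 Ni-NTA-purified recombinant enzyme incubated 1 h with 50 nM FRET peptide substrate (fluorophore and quencher flanking the BACE cleavage site). Reaction stopped with Tris buffer raising pH to neutrality; cleavage-released fluorescence read at ex 488/em 590 nm.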

Test [2] has as its target human recombinant BACE1 (Homo sapiens (Human), UniProt P56817). In words: In vitro enzymatic BACE1 FRET assay. Format: biochemical. As to conditions: read-out: IC50 IP (μM) BACE1 enzyme. In outline: as §1
Test [3] relates to Aβ40 in conditioned medium of cells stably expressing Amyloid Precursor Protein (APP). In words: In vitro BACE-1 cell-based assay (Aβ40 sandwich ELISA). As to conditions: read-out: IC50 IP (μM) BACE1 cell. An outline of the steps: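 APP-stable cells, pre-cultured 24 h at 37° C in DMEM/10% FBS, were treated 24 h with compound in a 10-point series starting at 100 μM or 10 μM (0.1% DMSO final). Secreted Aβ40 in conditioned medium was measured by pAb40/biotin-6E10 sandwich ELISA with Europium time-resolved fluorescence; IC50 from percent inhibition versus concentration.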
(In general: An ELISA detects its analyte on a solid surface through an enzyme-linked reagent.)

Test [4] concerns the target Recombinant Cat D (Homo sapiens (Human), UniProt P07339). In words: In vitro enzymatic Cathepsin D (Cat D) FRET assay. Conditions: read-out: IC50 IP (μM) CatD. Format: biochemical. An outline of the steps: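 Cleavage of a 20 nM fluorophore/quencher peptide by CHO-expressed recombinant Cat D proceeded for one hour at pH 3.5 (0.05 M citrate, 5 mM CHAPS, 10% DMSO final). Tris addition neutralized the pH to end the reaction. Fluorescence was then measured (ex 500 nm/em 580 nm).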

human recombinant BACE2, sequence (Q9Y5Z0 63-518): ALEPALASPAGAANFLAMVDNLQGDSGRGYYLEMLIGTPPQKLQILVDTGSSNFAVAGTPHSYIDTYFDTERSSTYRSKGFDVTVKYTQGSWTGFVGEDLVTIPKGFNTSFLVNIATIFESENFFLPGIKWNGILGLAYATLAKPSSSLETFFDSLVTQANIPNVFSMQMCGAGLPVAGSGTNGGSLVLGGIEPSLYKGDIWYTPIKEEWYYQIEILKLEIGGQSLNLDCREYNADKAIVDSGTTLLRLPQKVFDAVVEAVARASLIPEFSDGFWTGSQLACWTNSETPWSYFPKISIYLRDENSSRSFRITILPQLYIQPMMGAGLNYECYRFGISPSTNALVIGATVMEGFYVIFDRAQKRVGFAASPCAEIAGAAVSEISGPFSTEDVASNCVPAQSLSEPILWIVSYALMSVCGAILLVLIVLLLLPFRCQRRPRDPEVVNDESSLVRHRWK
human recombinant BACE1, sequence (P56817 46-501): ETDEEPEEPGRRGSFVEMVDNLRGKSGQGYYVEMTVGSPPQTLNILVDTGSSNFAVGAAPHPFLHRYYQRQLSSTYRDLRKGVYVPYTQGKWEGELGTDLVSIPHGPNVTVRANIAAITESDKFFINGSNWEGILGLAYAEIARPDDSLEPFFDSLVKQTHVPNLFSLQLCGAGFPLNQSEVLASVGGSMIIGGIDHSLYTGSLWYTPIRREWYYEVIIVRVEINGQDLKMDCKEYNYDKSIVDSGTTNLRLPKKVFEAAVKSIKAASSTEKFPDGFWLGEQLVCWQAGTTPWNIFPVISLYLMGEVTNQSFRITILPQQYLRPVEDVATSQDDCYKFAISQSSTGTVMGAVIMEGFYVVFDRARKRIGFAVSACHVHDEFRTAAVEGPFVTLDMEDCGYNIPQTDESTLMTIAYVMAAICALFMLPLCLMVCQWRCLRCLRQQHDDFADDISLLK
Recombinant Cat D, sequence (P07339 65-412): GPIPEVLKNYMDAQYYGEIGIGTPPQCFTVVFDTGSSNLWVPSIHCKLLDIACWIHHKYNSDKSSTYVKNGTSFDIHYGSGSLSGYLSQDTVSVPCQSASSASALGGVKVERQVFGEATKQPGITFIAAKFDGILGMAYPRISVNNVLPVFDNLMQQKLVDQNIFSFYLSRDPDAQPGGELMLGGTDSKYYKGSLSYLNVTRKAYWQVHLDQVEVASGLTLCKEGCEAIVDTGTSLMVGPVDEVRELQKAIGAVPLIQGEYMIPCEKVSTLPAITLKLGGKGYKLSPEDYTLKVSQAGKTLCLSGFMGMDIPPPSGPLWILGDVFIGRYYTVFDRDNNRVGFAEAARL

`CC#CCCOc1cnc(C(=O)Nc2ccc(F)c([C@@]3(C)N=C(N)S[C@@]4(COC)C[C@H]43)c2)cn1` [Example 1047, N-(3-((1S,5S,6S)-3-amino-1-(methoxymethyl)-5-methyl-2-thia-4-azabicyclo[4.1.0]hept-3-en-5-yl)-4-fluorophenyl)-5-(3-pentyn-1-yloxy)-2-pyrazinecarboxamide]: the IC50 in test [1] was 0.189 µM; in test [2], 0.0054 µM; in test [3], 0.015 µM; in test [4], more than 400 µM.
Taken in the same sequence, the figures for `COC[C@]12C[C@H]1[C@@](C)(c1cc(NC(=O)c3cnc(OCC4(C)CC4)cn3)ccc1F)N=C(N)S2` [Example 1049, N-(3-((1S,5S,6S)-3-amino-1-(methoxymethyl)-5-methyl-2-thia-4-azabicyclo[4.1.0]hept-3-en-5-yl)-4-fluorophenyl)-5-((1-methylcyclopropyl)methoxy)-2-pyrazinecarboxamide] were 0.18 µM, 0.0054 µM, 0.0035 µM and more than 400 µM.
For `COC[C@]12C[C@H]1[C@@](C)(c1cc(NC(=O)c3cnc(OCC4(C)COC4)cn3)ccc1F)N=C(N)S2` [Example 1050, N-(3-((1S,5S,6S)-3-amino-1-(methoxymethyl)-5-methyl-2-thia-4-azabicyclo[4.1.0]hept-3-en-5-yl)-4-fluorophenyl)-5-((3-methyl-3-oxetanyl)methoxy)-2-pyrazinecarboxamide], in that order: 1.19 µM, 0.03 µM, 0.035 µM and more than 400 µM.
As to `COC[C@]12C[C@H]1[C@@](C)(c1cc(NC(=O)c3cnc(OCCF)cn3)ccc1F)N=C(N)S2` [Example 1052, N-(3-((1S,5S,6S)-3-amino-1-(methoxymethyl)-5-methyl-2-thia-4-azabicyclo[4.1.0]hept-3-en-5-yl)-4-fluorophenyl)-5-(2-fluoroethoxy)-2-pyrazinecarboxamide], the IC50 in test [1] was 0.146 µM; in test [2], 0.016 µM; in test [3], 0.0083 µM; in test [4] it was more than 400 µM.
Consider `COC[C@]12C[C@H]1[C@@](C)(c1cc(NC(=O)c3cnc(OCC4CC4)cn3)ccc1F)N=C(N)S2` [Example 1053, N-(3-((1S,5S,6S)-3-amino-1-(methoxymethyl)-5-methyl-2-thia-4-azabicyclo[4.1.0]hept-3-en-5-yl)-4-fluorophenyl)-5-(cyclopropylmethoxy)-2-pyrazinecarboxamide], for which the IC50 in test [1] came to 0.108 µM; in test [2] it was 0.0059 µM; in test [3], 0.0029 µM; in test [4] it was 1420 µM.
Taken in the same sequence, the figures for `COC[C@]12C[C@H]1[C@@](C)(c1cc(NC(=O)c3cnc(OCC4CCC4)cn3)ccc1F)N=C(N)S2` [Example 1054, N-(3-((1S,5S,6S)-3-amino-1-(methoxymethyl)-5-methyl-2-thia-4-azabicyclo[4.1.0]hept-3-en-5-yl)-4-fluorophenyl)-5-(cyclobutylmethoxy)-2-pyrazinecarboxamide] were 0.171 µM, 0.0014 µM, 0.011 µM and 862 µM.
For `COC[C@]12C[C@H]1[C@@](C)(c1cc(NC(=O)c3cnc(OCC4COC4)cn3)ccc1F)N=C(N)S2` [Example 1055, N-(3-((1S,5S,6S)-3-amino-1-(methoxymethyl)-5-methyl-2-thia-4-azabicyclo[4.1.0]hept-3-en-5-yl)-4-fluorophenyl)-5-(3-oxetanylmethoxy)-2-pyrazinecarboxamide], the IC50 in test [1] stood at 0.498 µM; in test [2] it was 0.0079 µM; in test [3] it was 0.022 µM; in test [4], 1330 µM.
For `COC[C@]12C[C@H]1[C@@](C)(c1cc(NC(=O)c3cnc(OCC(C)C)cn3)ccc1F)N=C(N)S2` [Example 1056, N-(3-((1S,5S,6S)-3-amino-1-(methoxymethyl)-5-methyl-2-thia-4-azabicyclo[4.1.0]hept-3-en-5-yl)-4-fluorophenyl)-5-(2-methylpropoxy)-2-pyrazinecarboxamide], in that order: 0.317 µM, 0.0014 µM, 0.018 µM and 1240 µM.
